Source: patent US20230357099A1, “PYRAZOLO [3,4-B] PYRIDINE-4-CARBOXAMIDE NITRIFICATION INHIBITOR” (EUROCHEM ANTWERPTEN, priority 2020, published 2023)

Key:
[1] = test system: Nitrososphaera viennensis; assay: Nitrification inhibition assay on Nitrososphaera viennensis (nitrite, Griess); type: cell-based, Nitrososphaera viennensis EN76T; conditions: 0% = as strong as 100 µM PTIO, 100% = no inhibition
Procedure, shortened: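 N. viennensis EN76T cultures in FWM (pH 7.5, NH4Cl-supplemented), 5× concentrated, treated with compounds at 2.5 µM final (0.25% DMSO) and incubated 24 h at 42 °C. Nitrite measured by Griess absorbance at 540 nm against a standard curve. Relative nitrification normalized between DMSO (no compound) and 100 µM PTIO controls.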

[2] = test system: Candidatus Nitrospira kreftii; assay: Nitrification inhibition in Candidatus Nitrospira kreftii; type: cell-based; conditions: concentration of 6.25 µM
Experimental: Candidatus Nitrospira kreftii is a high (90%) enrichment of novel comammox species. To quantify nitrification inhibition in Ca. Nitrospira kreftii, a homogenous sample was taken from the bioreactor, washed and resuspended in sterile NOB mineral salts medium supplemented with (per liter) 1 mL of a trace element stock solution composed of NTA (15 g/L), ZnSO4 · 7H2O (0.43 g/L), CoCl2 · 6H2O (0.24 g/L), MnCl2 · 4H2O (0.99 g/L), CuSO4 · 5H2O (0.25 g/L), Na2MoO4 · 2H2O (0.22 g/L), NiCl2 · 6H2O (0.19 g/L), NaSeO4·10H2O (0.021 g/L), […] (0.014 g/L), CeCl·6H2O (0.24 g/L) and 1 mL of an iron stock solution composed of NTA (10 g/L) and FeSO4 (5 g/L). The final ammonium concentration was 200 µM.
To increase the nitrification rate, the cell density was increased 5 times via centrifugation. For homogenous distribution of the flocs, Ca. Nitrospira kreftii was continuously stirred during distribution with a multichannel pipet in the 96-well plates. […]
Ammonium concentrations were measured fluorescently via a modified orthophatal-dialdehyde assay. Nitrite and nitrate concentrations were determined consecutively with a spectrophotometer (at 540 nm): for nitrite, after addition of 100 µL Griess reagent to 100 µL sample (10 min incubation at room temperature) and for nitrate, subsequent to secondary addition of 27 µL of a saturated VCl3 solution in HCl (30 min incubation at 60° C.).

Structure (SMILES): CC(C)c1cc(C(=O)N2CCSCC2)c2cnn(C(C)C)c2n1 [Example 2]
- N. viennensis - relative nitrification (%) at 0.5 µM ([1]; 0.5 µM compound): 100%
- N. viennensis - relative nitrification (%) at 5 µM ([1]; 5 µM compound): 75%
- N. viennensis - relative nitrification (%) at 25 µM ([1]; 25 µM compound): 0%
- inhibition at 6.25 µM [2]: 57.3%
